Common to all, as to assay type: biochemical
One assay addresses PKR R510Q (Homo sapiens, UniProt P30613, R510Q). Description: PKR Mutant Assay, AC50 against PKR R510Q. The following applies: mutant PKR R510Q enzyme. Here is the method: (§1) • PKR or PKR mutant enzyme solution was diluted in assay buffer. • 2 μL of test compound was added into wells first, and then 180 μL reaction mix was added. • Reactions mixture with test compound was assembled except for ADP, and plates were stored for 60 minutes at room temperature. • 20 uL ADP was added to start reaction at room temperature and reaction progress was measured as changes in absorbance at 340 nm wavelength at room temperature.
(§2) Test Compound Preparation: • Test compound stock was made at 100× concentration in 100% DMSO (10 mM) • 1 to 3 dilutions were made for 11 points (i.e. 50 μl of first concentration added to 100 μl 100% DMSO to yield 3.33 mM, 50 μl of this added to 100 μl DMSO to yield 1.11 mM, and so forth) • 1 to 100 dilution into assay (2 μl in 200 μl) yielded starting concentration of 100 μM, decreasing 3 fold for 11 points. Assay Buffer: 100 mM KCl, 50 mM Tris 7.5, 5 mM MgCl2, 1 mM DTT, 0.03% BSA Reaction Mixture: PKR mutant enzyme: 80-400 ng/well; ADP: 0.22-1.65 mM; PEP: 0.1-0.5 mM; NADH: 180 uM; LDH: 0.5 units (Sigma#59023); DTT: 1 mM; BSA: 0.03%.

In the next assay the target is PKR WT (Homo sapiens, UniProt P30613). Description: PKR WT enzymatic AC50 assay. The following applies: wild type PKR. Here is the method: as §1, §2
Sequence of PKR WT (P30613 whole entry): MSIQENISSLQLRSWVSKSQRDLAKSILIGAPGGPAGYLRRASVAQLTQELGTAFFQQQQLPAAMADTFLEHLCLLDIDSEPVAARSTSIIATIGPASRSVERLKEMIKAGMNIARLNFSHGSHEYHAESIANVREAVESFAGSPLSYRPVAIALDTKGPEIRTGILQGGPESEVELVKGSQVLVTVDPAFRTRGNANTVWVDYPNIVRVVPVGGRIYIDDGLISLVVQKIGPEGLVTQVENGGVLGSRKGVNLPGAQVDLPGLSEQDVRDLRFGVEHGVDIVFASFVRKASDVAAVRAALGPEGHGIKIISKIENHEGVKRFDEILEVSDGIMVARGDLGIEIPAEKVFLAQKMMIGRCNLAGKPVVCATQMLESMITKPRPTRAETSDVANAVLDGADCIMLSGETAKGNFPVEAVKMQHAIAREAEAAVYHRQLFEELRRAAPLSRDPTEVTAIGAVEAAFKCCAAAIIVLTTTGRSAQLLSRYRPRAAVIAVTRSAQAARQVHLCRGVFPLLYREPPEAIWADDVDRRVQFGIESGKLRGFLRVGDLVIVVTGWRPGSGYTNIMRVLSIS
Another assay has as its target PKR R532W (Homo sapiens, UniProt P30613, R532W). Description: PKR Mutant Assay, AC50 against PKR R532W. The following applies: mutant PKR R532W enzyme. The procedure:
as §1, §2

The results in this text go back to patent US9108921B2, “Therapeutic compounds and compositions” (AGIOS PHARMACEUTICALS, INC, priority 2014, dated 2015).

Sequence of PKR R510Q (P30613 whole entry R510Q): as the sequence (P30613 whole entry) above, with R510Q counted along it
Sequence of PKR R532W (P30613 whole entry R532W): as the sequence (P30613 whole entry) above, with R532W counted along it

Broadly, the AC50 is the midpoint of the concentration-response curve, whichever way the signal moves. Read a low AC50 as greater potency. In the case of `O=C(c1ccc(NS(=O)(=O)c2ccc(F)c3cccnc23)cc1)N1CCC(O)(Cc2ccccc2C(F)(F)F)CC1` [Compound 208, 5-fluoro-N-(4-(4-hydroxy-4-(2-(trifluoromethyl)benzyl)piperidine-1-carbonyl)phenyl)quinoline-8-sulfonamide], the AC50 on PKR R510Q was 0.101 to 1 µM; at PKR WT, less than 0.1 µM; at PKR R532W it was less than 0.1 µM.

Consider `O=C(c1ccc(NS(=O)(=O)c2cccc3scnc23)cc1)N1CCC(O)(COCC(F)(F)F)CC1` [Compound 386, N-(4-(4-hydroxy-4-((2,2,2-trifluoroethoxy)methyl)piperidine-1-carbonyl)phenyl)benzo[d]thiazole-4-sulfonamide], for which the AC50 at PKR R510Q, on PKR WT and at PKR R532W was 0.101 to 1 µM in each case.

`O=C(c1ccc(NS(=O)(=O)c2cccc3nsnc23)cc1)N1CCC(O)(c2ccccc2)CC1` [Compound 294]: the AC50 on PKR R510Q is greater than 10 µM; at PKR WT, 1.01 to 10 µM; at PKR R532W, 1.01 to 10 µM.

`O=C(c1ccc(NS(=O)(=O)c2cccc3ncccc23)cc1)N1CCC(O)(c2ccccc2)CC1` [Compound 300]: the AC50 was greater than 10 µM at PKR R510Q, 1.01 to 10 µM at PKR WT and 1.01 to 10 µM at PKR R532W.

Regarding `O=C(c1ccc(NS(=O)(=O)c2cccc3cccnc23)cc1)N1CCC(O)(/C=C/C(F)F)CC1` [Compound 200], the concentration at half-maximal activity (AC50) on PKR R510Q is 0.101 to 1 µM; at PKR WT, less than 0.1 µM; on PKR R532W, 0.101 to 1 µM.

With `O=C(c1ccc(NS(=O)(=O)c2ccc(F)c3cccnc23)cc1)N1CCC(O)(CC2CCC2)CC1` [Compound 201, N-(4-(4-(cyclobutylmethyl)-4-hydroxypiperidine-1-carbonyl)phenyl)-5-fluoroquinoline-8-sulfonamide], the AC50 on PKR R510Q was 0.101 to 1 µM; on PKR WT it was less than 0.1 µM; on PKR R532W, less than 0.1 µM.

Take `O=C(c1ccc(NS(=O)(=O)c2cccc3cccnc23)cc1)N1CCC(CO)(c2ccccc2)CC1` [Compound 238]: the AC50 on PKR R510Q fell in the range of 1.01 to 10 µM; at PKR WT, 0.101 to 1 µM; on PKR R532W, 0.101 to 1 µM.

Turning to `O=C(c1ccc(NS(=O)(=O)c2cccc3nccnc23)c(F)c1)N1CCC(O)(c2cccc(F)c2F)CC1` [Compound 262, N-(4-(4-(2,3-difluorophenyl)-4-hydroxypiperidine-1-carbonyl)-2-fluorophenyl)quinoxaline-5-sulfonamide], the half-maximal activity concentration (AC50) at PKR R510Q, at PKR WT and at PKR R532W was 0.101 to 1 µM each time.

In the case of `CC(C)CC1(O)CCN(C(=O)c2ccc(NS(=O)(=O)c3ccc(F)c4nccnc34)cc2)CC1` [Compound 242], the AC50 on PKR R510Q, at PKR WT and at PKR R532W was 0.101 to 1 µM in each case.

In the case of `COc1cccnc1C1(O)CCN(C(=O)c2ccc(NS(=O)(=O)c3cccc4cccnc34)cc2)CC1` [Compound 285], the AC50 at PKR R510Q was greater than 10 µM; on PKR WT, 0.101 to 1 µM; on PKR R532W, 0.101 to 1 µM.

With `Cc1nc2c(S(=O)(=O)Nc3ccc(C(=O)N4CCC(O)(CC(C)C)CC4)cc3)cccc2o1` [Compound 384, N-(4-(4-hydroxy-4-isobutylpiperidine-1-carbonyl)phenyl)-2-methylbenzo[d]oxazole-4-sulfonamide], the concentration at half-maximal activity (AC50) at PKR R510Q, at PKR WT and on PKR R532W was 0.101 to 1 µM each time.

Turning to `N#Cc1cc(NS(=O)(=O)c2cccc3cccnc23)ccc1C(=O)N1CCC(O)(c2ccccc2)CC1` [Compound 261, N-(3-cyano-4-(4-hydroxy-4-phenylpiperidine-1-carbonyl)phenyl)quinoline-8-sulfonamide], the AC50 at PKR R510Q, on PKR WT and at PKR R532W was 0.101 to 1 µM throughout.

Consider `O=C(c1ccc(N[S+]([O-])c2cccc3cccnc23)cc1)N1CCC(O)(c2ccccc2Cl)CC1` (stereo not drawn) [Compound 311], for which the AC50 on PKR R510Q was greater than 10 µM; at PKR WT, 1.01 to 10 µM; at PKR R532W, 1.01 to 10 µM.

Consider `O=C(c1ccc(NS(=O)(=O)c2cccc3cccnc23)cc1)N1CCC(O)(CCO)CC1` [Compound 274], for which the AC50 was in the range of 1.01 to 10 µM on PKR R510Q, 0.101 to 1 µM on PKR WT and 0.101 to 1 µM on PKR R532W.

For the compound `O=C(c1ccc(NS(=O)(=O)c2ccc(F)c3scnc23)cc1)N1CCC(O)(c2ccccc2Cl)CC1` [Compound 378, N-(4-(4-(2-chlorophenyl)-4-hydroxypiperidine-1-carbonyl)phenyl)-7-fluorobenzo[d]thiazole-4-sulfonamide], the values for the AC50 on PKR R510Q, on PKR WT and at PKR R532W were 1.01 to 10 µM, 0.101 to 1 µM and 0.101 to 1 µM, respectively.

Take `Nc1c(F)ccc(S(=O)(=O)Nc2ccc(C(=O)N3CCC(O)(c4ccccc4Cl)CC3)cc2)c1N` [Compound 256, 2,3-diamino-N-(4-(4-(2-chlorophenyl)-4-hydroxypiperidine-1-carbonyl)phenyl)-4-fluorobenzenesulfonamide]: the results for the concentration at half-maximal activity (AC50) at PKR R510Q, at PKR WT and at PKR R532W were 1.01 to 10 µM, 0.101 to 1 µM and 0.101 to 1 µM, respectively.

As for `CC(C)CC1(O)CCN(C(=O)c2ccc(NS(=O)(=O)c3ccnc4scnc34)cc2)CC1` [Compound 314], the AC50 on PKR R510Q was greater than 10 µM; at PKR WT, 1.01 to 10 µM; on PKR R532W, greater than 10 µM.

Turning to `O=C(c1ccc(NS(=O)(=O)c2cccc3cccnc23)c(F)c1F)N1CCC(O)(c2ccccc2)CC1` [Compound 302], the concentration at half-maximal activity (AC50) at PKR R510Q was greater than 10 µM; at PKR WT, 1.01 to 10 µM; on PKR R532W, 1.01 to 10 µM.

In the case of `Cc1nc2c(S(=O)(=O)Nc3ccc(C(=O)N4CCC(O)(c5ccccc5Cl)CC4)cc3)cccc2s1` [Compound 293], the values for the AC50 on PKR R510Q, at PKR WT and on PKR R532W were 1.01 to 10 µM, 0.101 to 1 µM and 0.101 to 1 µM, respectively.

On to `Nc1nc2cc(S(=O)(=O)Nc3ccc(C(=O)N4CCC(O)(c5ccccc5Cl)CC4)cc3)c(F)cc2s1` [Compound 418], for which the AC50 on PKR R510Q is greater than 10 µM; on PKR WT, 1.01 to 10 µM; on PKR R532W it was greater than 10 µM.

For the compound `O=C(c1ccc(NS(=O)(=O)c2cccc3cccnc23)c(OC(F)F)c1)N1CCC(O)(c2ccccc2Cl)CC1` [Compound 263, N-(4-(4-(2-chlorophenyl)-4-hydroxypiperidine-1-carbonyl)-2-(difluoromethoxy)phenyl)quinoline-8-sulfonamide], the AC50 at PKR R510Q, on PKR WT and at PKR R532W was 0.101 to 1 µM throughout.

On to `O=C(c1ccc(NS(=O)(=O)c2cccc3nccnc23)cc1)N1CCC(O)(CCC(F)F)CC1` [Compound 230, N-(4-(4-(3,3-difluoropropyl)-4-hydroxypiperidine-1-carbonyl)phenyl)quinoxaline-5-sulfonamide], for which the half-maximal activity concentration (AC50) on PKR R510Q, on PKR WT and at PKR R532W was 0.101 to 1 µM each time.

For the compound `O=C(c1ccc(NS(=O)(=O)c2cccc3csnc23)cc1)N1CCC(O)(c2ccccc2Cl)CC1` [Compound 244, N-(4-(4-(2-chlorophenyl)-4-hydroxypiperidine-1-carbonyl)phenyl)benzo[c]isothiazole-7-sulfonamide], the values for the concentration at half-maximal activity (AC50) on PKR R510Q, at PKR WT and on PKR R532W were 1.01 to 10 µM, 0.101 to 1 µM and 0.101 to 1 µM, respectively.

Consider `CC(C)CC1(O)CCN(C(=O)c2ccc(NS(=O)(=O)c3cccn4ccnc34)cc2)CC1` [Compound 312], for which the AC50 at PKR R510Q was greater than 10 µM; on PKR WT, 1.01 to 10 µM; on PKR R532W, 1.01 to 10 µM.

For `N#Cc1ccccc1C1(O)CCN(C(=O)c2ccc(NS(=O)(=O)c3cccc4cccnc34)cc2)CC1` [Compound 266, N-(4-(4-(2-cyanophenyl)-4-hydroxypiperidine-1-carbonyl)phenyl)quinoline-8-sulfonamide], the AC50 at PKR R510Q fell in the range of 1.01 to 10 µM; at PKR WT, 0.101 to 1 µM; on PKR R532W it was 0.101 to 1 µM.

As for `O=C(c1ccc(NS(=O)(=O)c2cccc3c2OC(F)(F)O3)cc1)N1CCC(O)(c2ccccc2Cl)CC1` [Compound 308], the AC50 on PKR R510Q is greater than 10 µM; on PKR WT it was 1.01 to 10 µM; at PKR R532W, 1.01 to 10 µM.

Consider `O=C(c1ccc(NS(=O)(=O)c2cccc3cccnc23)cc1)N1CCC(O)(Cc2cccnn2)CC1` [Compound 272], for which the AC50 at PKR R510Q is 1.01 to 10 µM; on PKR WT it was 0.101 to 1 µM; at PKR R532W it was 0.101 to 1 µM.

For `O=C(c1ccc(NS(=O)(=O)c2c[nH]c3cccnc23)cc1)N1CCC(O)(c2ccccc2Cl)CC1` [Compound 316], the AC50 at PKR R510Q, at PKR WT and on PKR R532W was greater than 10 µM in each case.

As to `O=C(c1ccc(NS(=O)(=O)c2cccc3snnc23)cc1)N1CCC(O)(c2ccccc2Cl)CC1` [Compound 417], the AC50 at PKR R510Q is greater than 10 µM; on PKR WT, 1.01 to 10 µM; at PKR R532W, 1.01 to 10 µM.

For `O=C(c1ccc(NS(=O)(=O)c2ccc(F)c3scnc23)cc1)N1CCC(O)(c2ccccc2Cl)CC1` [Compound 231], the AC50 was in the range of 1.01 to 10 µM on PKR R510Q, 0.101 to 1 µM on PKR WT and 0.101 to 1 µM at PKR R532W.

For `O=C(c1ccc(NS(=O)(=O)Cc2ccccn2)cc1)N1CCC(O)(c2ccccc2Cl)CC1` [Compound 322], the half-maximal activity concentration (AC50) at PKR R510Q, on PKR WT and on PKR R532W was greater than 10 µM throughout.
